Bounds are passed on as bounds.

As usually defined, the melting point is the temperature of the solid-liquid transition. For the compound `CCc1cccc(CC)c1N(C=O)CC(=O)O`, the melting point fell in the range of 139 to 141 °C.

As to `CN1C(=O)C(N)C(c2ccccc2)=Nc2ccccc21` (stereo unspecified), the melting point lay in the range of 178 to 179 °C. Regarding `CCOC(=O)C1=C(N)N=C(SCC)C(C(=O)OCC)C1c1cccc([N+](=O)[O-])c1` (stereo unspecified), the melting point turned out to be 187 °C.

`C=CCc1ccc(CCNC(=O)c2cc(Cl)ccc2OC)cc1S(N)(=O)=O` displayed a melting point of 186 to 187 °C. To `COC(=O)CCCCCSC1=CC(OC2CCCCO2)CC1=O` (stereo unspecified) belongs 41 to 42 °C; to `CC(C)c1cccc2c1CC(C(=O)O)SCC2=O` (stereo unspecified), 157 to 158 °C; to `COc1ccc(C(C#N)=NOS(=O)(=O)C(C)C)cc1`, 72 °C. To `CC(=O)Nc1cnn2c1-c1ccccc1NC2(C)C` belongs 228 to 230 °C.

Compound `C#Cc1cn(-c2c(Cl)cc(C(F)(F)F)cc2Cl)c2ccccc12` came in with a melting point of 120 to 122 °C. To `COc1ccc(N(c2ccc(C=Cc3ccc4ccc5cccc6ccc3c4c56)cc2)c2ccc(OC)cc2)cc1` belongs 160 °C; to `COc1cc(Nc2ncnc3cc4cc(OCc5ccccc5)c(OC)cc4cc23)c(Cl)cc1Cl`, 275 to 280 °C.

Take `Nc1ccc(C(=O)c2cccc(F)c2)cc1`: the melting point lay in the range of 98 to 100 °C.

In turn, `COc1cccc([C@H]2O[C@H](CC(=O)O)C(=O)N(CC(C)(CO)CO)c3ccc(Cl)cc32)c1OC` returned a melting point of 208 to 210 °C. To `OC1(c2ccc(Cl)cc2)CCN(CCCc2noc3cc(F)ccc23)CC1` belongs 142 to 145 °C. In turn, `CC(=O)NC(C)(C)c1ccc(C(C)N2CCN(c3ccc(F)cc3)CC2)cc1` (stereo unspecified) gave a melting point of 156 to 157 °C. Compound `S=c1[nH]ccn1C1Cc2ccccc2C1` gave a melting point of 210 to 211 °C.

For `Cc1ccc(-c2[nH]c(-c3cnc4ccccc4c3)nc2C(=O)Nc2nccs2)cc1`, the melting point is above 250 °C. To `CCOC(=O)N1C(NC(C)C)=NS(=O)(=O)c2c1sc(C)c2C#N` belongs 116 to 119 °C; to `N[C@@H]1C(=O)Nc2ccccc2-c2ccccc21`, above 225 °C; to `NC(=O)NC1CCN(Cc2ccccc2)CC1`, 140 °C. Consider `O=C(Nc1ccccc1)OCCc1ccc2c(c1)C(=O)c1ccccc1CO2`, for which the melting point is 98 to 99 °C. Turning to `CC(C)(C)c1ccc(S(=O)(=O)/C=C/C(N)=O)cc1`, the melting point came out at 151 °C.

In turn, `CCC(Nc1nc(NC(C)=O)nc(C(C)F)n1)c1ccccc1` (stereo unspecified) came in with a melting point of 118 °C.

`COc1ccc(F)cc1C(C)(C)CC(C)(O)Cc1cc2ccccc2[nH]1` (stereo unspecified): the melting point fell in the range of 118 to 120 °C. To `COC(=O)C(=Cc1c[nH]c2cc(Cl)ccc12)[N+](=O)[O-]` belongs 159 to 160 °C. Under `Nc1ncc(Oc2ccc(Cl)cc2)c(N2CCOCC2)n1` stands 138 to 140 °C; under `NCCNc1ccc2ccccc2n1`, 124 to 125 °C; under `O=C(O)c1ccc(C(=O)N[C@@H](Cc2c[nH]c3ccccc23)C(=O)O)cc1`, 187 to 189 °C. Under `CNC(=O)C[C@@H](c1ccccc1)c1c[nH]c2cccc(OC)c12` stands 178 to 181 °C; under `COc1c(C)c(C(=O)c2ccc3[nH]c(=O)n(O)c(=O)c3c2)n2ccccc12`, 300 °C. `CC(C)(C)C(C)(O)C(CCOc1ccccc1)n1cncn1` (stereo unspecified) returned a melting point of 118 to 120 °C. To `CN1CCN(c2ccc(Nc3ncc4c(n3)S/C(=C/c3ccc(C#N)cc3)C(=O)N4)cc2)CC1` belongs 274 to 276 °C; to `O=c1nc(-c2cccc(Sc3ncccn3)n2)sc2ccccc12`, 245 to 246 °C; to `Oc1cc(-c2cc3n(n2)CCCC3)c(F)cc1Cl`, 218 to 220 °C. Take `CN(C)S(=O)(=O)c1c(C(F)(F)F)nn(-c2c(Cl)cc(C(F)(F)F)cc2Cl)c1N`: the melting point was 178 to 179 °C. Compound `Cc1ccc(C)c(OCCCC(C)(C)C(=O)Nc2cccc([N+](=O)[O-])c2)c1` gave a melting point of 93 to 94 °C. Under `Cc1ncncc1C(=O)Nc1cc(F)c(-n2nc(C(F)(F)F)cc2C2CC2)c(F)c1` stands 147 to 150 °C; under `CC(=O)Oc1ccc(-n2cc(C(=O)O)c(=O)cc2-c2ccc(N(C)C)cc2)cc1`, 128 to 131 °C.

Turning to `Cc1cc(C)cc(S(=O)(=O)c2c(C(=O)O)[nH]c3ccc(Cl)cc23)c1`, the melting point fell in the range of 277 to 278 °C. To `CCNc1nc(NC(C)C)nc(OC)n1` belongs 95 to 96 °C; to `COCCn1nc2c(N)nc3ccccc3c2c1CC(C)(C)C(N)=O`, 225 to 226 °C. Under `CC(=O)NC(=O)c1ccc(OCCn2ccnc2)cc1` stands 164 to 165 °C. To `CC12CCC(=O)C=C1CCN(C(=O)OCc1ccccc1)C2` (stereo unspecified) belongs 128 °C. The compound `O=CNc1ccc(Cl)cc1C(=O)c1ccccc1Cl` showed a melting point of 106 to 107 °C. To `C[C@@H](n1cnc2cc(C#N)ccc2c1=O)[C@](O)(Cn1cncn1)c1ccc(F)cc1F` belongs 168 to 169 °C. `CC(=O)NC[C@H]1CN(c2ccc(N3CCC(=C(C#N)c4ccccn4)CC3)c(F)c2)C(=O)O1` registered a melting point of 265 to 267 °C. The compound `CC(C)n1nc(-c2c(-c3ccccc3)nn3ccc(OCCN4CCOCC4)cc23)ccc1=O` returned a melting point of 160 to 162 °C.

`COC12CCCCC1CC(c1ccccc1)=NN2S(=O)(=O)c1ccc(C)cc1` (stereo unspecified) registered a melting point of 112 to 114 °C.

For `Cc1cc2c(s1)CCCC1CC(=O)N(c3ccc(Cl)cc3)N=C21` (stereo unspecified), the melting point was in the range of 119 to 121 °C.

For the compound `CCOC(=O)c1[nH]c2c(NS(=O)(=O)c3cccs3)cccc2c1C`, the melting point lay in the range of 198 to 199 °C. As to `CCCc1cccc(N2CC(=O)N(C)C(=O)N2)c1`, the melting point was in the range of 112 to 115 °C. As to `CCN1CCN(c2ccc(-c3[nH]nc4c3C(=O)c3c(NC(=O)NN5CCOCC5)cccc3-4)cc2)CC1`, the melting point was determined as 245 °C. Compound `CS(=O)(=O)C(=C1CN(C(c2ccccc2)c2ccccc2)C1)c1cccc(C(N)=O)c1` yielded a melting point of 140 °C. To `Cc1nccn1S(=O)(=O)c1c[nH]cn1` belongs 158 to 159 °C; to `Cc1c(C2=CCC(c3ccccc3)(N(C)C)CC2)[nH]c2ccc(F)cc12` (stereo unspecified), 171 to 175 °C. Under `Nc1ccc(Sc2c(O)c3c(=O)n(-c4ccccc4)c4ccccc4c3oc2=O)cc1` stands above 300 °C.

On to `COc1cc(N)ccc1OCCCN1CCN(c2ccccc2)CC1`, for which the melting point fell in the range of 112 to 113 °C. Under `CCNc1c(-c2ccccc2C)nc2c3cc(OC)ccc3ccn12` stands 153 to 154 °C; under `O=C(O)CCc1cc(F)cc(F)c1`, 56 °C; under `CC(=O)N(O)Cc1ccc(OCCN(C)c2nc3ccccc3o2)cc1`, 135 to 136 °C. In the case of `CCCCCOC(=O)Cc1sc(F)c(N=c2sc(=O)n3n2CCCC3)c1Cl`, the melting point was 39 to 41 °C. To `COc1ccc(N2C[C@@](C)(COC(=O)c3ccc([N+](=O)[O-])cc3)OC2=O)cc1` belongs 156 to 158 °C. Under `CC(C)(C)OC(=O)N1CCC(ON=C(c2ccccc2)c2cc3ccncc3[nH]2)C1` (stereo unspecified) stands 80 to 82 °C; under `Cc1cc(C2=Nn3cc(C(F)(F)F)nc3SC2c2ccc(F)cc2)cc2c1OCC(=O)N2` (stereo unspecified), 136 to 138 °C. To `C[Si](C)(C)c1ccc2c(c1)C(CN1CCCCC1)c1cc([Si](C)(C)C)ccc1-2` belongs 107 to 108 °C. Compound `CC(C)Cn1c(C(=O)O)c(-c2cccs2)c2cc(OCc3ccccc3)ccc2c1=O` displayed a melting point of 171 to 172 °C.

For the compound `CCC(C)(C)NC(=O)C(=O)C(C)(C)C`, the melting point is 36 °C. Under `CCOC(=O)C(CC(=O)c1cc(F)ccc1OC)(NC(C)=O)C(=O)OCC` stands 123 to 124 °C; under `Nc1ccccc1Sc1ccc2c(c1)OCC(=O)N2`, 70 to 71 °C; under `CC(=O)c1ccc2c(c1)ncn2-c1cccc(-c2cccnc2)c1`, 195 to 197 °C. Turning to `Cc1nn(-c2cccnc2)cc1NCC1CC1`, the melting point is 73 to 75 °C. Under `CC(=O)Nc1ccc(C(F)(F)F)cc1C` stands 160 °C; under `CCC(O)c1oc(C)cc(=O)c1O` (stereo unspecified), 134 to 136 °C. Under `NC(=C[N+](=O)[O-])NC1CCCC1` stands 117 to 124 °C; under `COc1cc(C)c(C(=O)c2c(OC)ccc(Br)c2Cl)c(OC)c1OC`, 87 to 88 °C.

For the compound `CCC(CC)COc1c(-c2ccc(S(C)(=O)=O)cc2)cnn(-c2ccc(F)cc2)c1=O`, the melting point was 107 to 108 °C.

Consider `CNC(=O)ON=C(SCC(N)=O)C(C)(C)[N+](=O)[O-]`, for which the melting point lay in the range of 125 to 127 °C.

On to `COC(=O)Cc1nc(-c2ccc(Cl)cc2)oc1Oc1cc(C)ccc1C`, for which the melting point turned out to be 113 °C. With `Cc1cccc([N+](=O)[O-])c1CNc1cccn2c(C)c(C)nc12`, the melting point fell in the range of 160 to 162 °C. To `O=C(NCc1ccccn1)OCCOCCOC(=O)NCC1CCCCC1` belongs 65 to 67 °C; to `CCOC(=O)C(C#N)=Cc1cc(O)c(O)c([N+](=O)[O-])c1`, 205 to 210 °C.

For `Cc1nc(NC(=O)c2cc[nH]c(=O)c2)sc1C(=O)NCc1ccccc1`, the melting point was in the range of 290 to 292 °C. To `COc1ccc(CNC(=O)c2cc3c(=O)n(C[C@H]4CC[C@H](C(=O)O)CC4)cnc3cn2)cc1` belongs 232 to 233 °C. To `O=c1c2cnc3ccccc3c2on1-c1ccccc1` belongs 163 °C. Regarding `CNS(=O)(=O)N(C)C(=O)CCCl`, the melting point is 96 °C.

For `O=[N+]([O-])c1ccc(Br)cc1O`, the melting point lay in the range of 40 to 42 °C. Under `CCCCOc1cc(/C=C(\OCC)C(=O)O)ccc1OCCc1ccc(OS(C)(=O)=O)cc1` stands 117 °C. To `CN1CCC(c2nn(-c3ccc(C(F)(F)F)cc3)c3ccc(F)cc23)CC1` belongs 126 to 128 °C; to `Nc1ccc(OC(F)(F)F)cc1CO`, 75.9 to 77.6 °C; to `OCC1(CO)CC(Cc2ccc(F)cc2)=NO1`, 93 to 97 °C. Take `CC(=O)N(C)c1ccc(Cl)c(COc2cccn3c(Br)c(C)nc23)c1Cl`: the melting point was 201 to 204 °C.

The values above are taken from a melting point compilation (Tetko et al.; mined from patent text by program, amines drawn as free bases though some values may be those of a salt).
